# According to patent US10288604B2, “Method for imaging cell using fluorescence-labeled sugar derivative having coumarin derivative bound thereto, and imaging agent” (HIROSAKI UNIVERSITY, priority 2012, dated 2019):
# Assays:
# [1] = tested on: neurons acutely dissociated from mouse midbrain substantia nigra pars reticulata; experiment: Application of fluorescent sugar derivatives to acutely dissociated normal neurons (confocal imaging of uptake); format: cell-based
# Method: This was conducted according to a method described in WO 2010/16587.
# Living neurons were acutely dissociated from mouse midbrain substantia nigra pars reticulata, and to which a mixed solution containing 100 μM of 2-PBDG and 20 μM of 2-TRLG was administered at 37° C. for 5 minutes. FIGS. 1A to C represent confocal microscopic images taken immediately before this. A is a fluorescence image in blue wavelength region (Blue channel, wavelength range: 415-580 nm). The position of cells is recognized by autofluorescence. The fluorescence signal intensity is represented by pseudocolor. B is a fluorescence image in red wavelength region (Red channel, 580-740 nm). A and B were obtained both by simultaneous excitation using 405 nm Blue diode laser at an intensity of 60%, wherein photomultipliers (PMT) 1 and 2 were used respectively, and the detection sensitivity of PMT2 was raised higher than PMT1 so that the presence or absence of invasion of 2-TRLG can be detected in a sensitive manner. C is a view in which the bright field image is overlaid on the fluorescence images of A and B.
# An experiment was conducted in the same manner as in Example 2.
# FIGS. 2A to C represent confocal microscopic images immediately before administration of a mixed solution containing 100 μM of 2-PBLG and 20 μM of 2-TRLG at 37° C. to acutely dissociated neurons of mouse midbrain substantia nigra pars reticulata for 5 minutes.
# FIG. 3 represents confocal microscopic images before and after administration of a mixed solution containing 100 μM of 2-HCDG and 20 μM of 2-TRLG at 37° C. for 3 minutes to neurons acutely dissociated from mouse midbrain substantia nigra pars reticulata. A and B are fluorescence images acquired before administration in Blue channel (415-580 nm) and Red channel (580-740 nm), respectively. The excitation wavelength is 405 nm. C is an image of differential interference (Differential Interference contrast, DIC). D is an overlay of the above-described images. E to H are the same as A to D, excepting that E to H are images acquired 4 minutes after initiation of washout of the fluorescence tracer solution after administration of the 2-HCDG+2-TRLG fluorescence tracer solution at 37° C. for 3 minutes. […] Since invasion of 2-TRLG into a cell is not observed, the plasma membrane of the neuron is thought to be maintained intactly.
# Since the optimal excitation wavelength was as very low as 320 nm in this experiment, an image was acquired by Retiga-2000R CCD camera manufactured by Q-imaging via a custom-order filter constituted of an excitation filter (320 nm) (half width: 40 nm), a fluorescence filter (435 nm) (half width: 40 nm) and a dichroic mirror (409 nm), by a xenon lamp, using Nikon Ti-E real time deconvolution microscope.
# [2] = tested on: tumor cell cluster composed of mouse insulinoma cells (MIN6); experiment: Imaging of tumor cell cluster composed of MIN6 cells (real time laser scanning confocal microscope); format: cell-based
# Method: A culture solution prepared by suspending MIN6 cells at a proportion of 10×10^4 cells/mL was dropped in an amount of 10 μL on a glass cover slip, then, allowed to adhere to the glass surface, and 3 mL of the culture solution was added and cultured. The half quantity of the culture solution was changed every three days.
# Cryopreserved MIN6 cells (cells donated from Professor Miyazaki Junichi of Osaka University and cultured 5 to 8 passages) were subjected to culture according to an ordinary method, and cultured 7 to 9 passages which were used in experiments. The half amount of the culture solution was changed every two days.
# NaCl 120.0 mM, KCl 4.75 mM, KH2 PO4 1.19 mM, MgSO4.7H2O 1.19 mM, CaCl2.2H2O 1 mM, NaHCO3 5.02 mM, D-Glucose 5.6 mM, HEPES 10 mM (adjusted to pH 7.35 with 1M NaOH). For inhibiting entrance and elimination of fluorescently labeled glucose via a gap junction/hemichannel, 0.1 mM Carbenoxolone (SIGMA #C4790) was added. The HEPES solution for image acquisition was used as a solution for preparing a 2-PBLG solution and as a solution for preparing a 2-PBLG/2-TRLG solution and 2-PBLG/2-NBDLG/2-TRLG solution.
# A glass cover slip wherein MIN6 cells had been cultured was transferred into a HEPES solution for image acquisition in a perfusion chamber set on a universal stage (Leica 11600234) on a confocal laser scanning microscope (TCS SP5 available from Leica), and adhered gently and tightly to the glass surface at the bottom of the chamber. […] Further, there is an excellent effect that in the space sandwiched by the metal guides, the perfusion solution flows smoothly as a laminar flow and quick solution exchange is possible.
# A perfusion solution feeding system is equipped with one 60 mL cylinder for a control solution and five 10 mL cylinders for agent feeding, which can be switched as needed by a magnetic valve to allow perfusion. In experiments according to the present invention, a 5.6 mM glucose-containing HEPES solution for image acquisition was administered using the 60 mL cylinder and a mixed solution of 2-PBLG/2-NBDLG/2-TRLG, a mixed solution of 2-PBDG/2-TRLG, or a mixed solution of 2-PBLG/2-TRLG was administered using one of the five 10 mL cylinders. As described below, to avoid generation of bubbles in the perfusion chamber, both the solutions were heated beforehand, combined in one tube before being introduced into the perfusion chamber, the flow rate thereof being controlled by a flow rate controller, then, heated again by an inline heater and fed to the perfusion chamber on the confocal microscope.
# A laser scan confocal microscope (manufactured by Leica, TCS-SP5 system, microscope body is DMI6000 CS trino electromotive inverted microscope) was used in conventional mode. Regarding laser used, a 405 nm diode laser was used for excitation of 2-PBLG and 2-PBDG, excitation of a mixed solution of 2-PBLG (or 2-PBDG) and 2-TRLG with a single light source, or live staining of nucleus by DAPI. The irradiation intensity was appropriately adjusted in accordance with the fluorescent pigment used so as to obtain sufficient observation intensity by an acoustic optical polarization element (Acoustic Optical Tunable Filter, AOTF). 2-NBDLG and 2-TRLG were excited by 488 nm Argon laser. The scan speed was 200 Hz or 400 Hz.
# In fluorescence detection, a photomultiplier detector (PMT) 1 was used for detection of blue fluorescence by 2-PBDG or 2-PBLG and images were acquired in a wavelength detection range set at 415-580 nm in the case of detection of bicolor of 2-PBLG/2-TRLG and in a wavelength detection range set at 415-500 nm in the case of detection of tricolor of 2-PBLG/2-NBDLG/2-TRLG. For detection of green fluorescence by 2-NBDLG, PMT2 (called green channel, the same shall apply hereinafter) was used in a wavelength detection range of 500-580 nm. For detection of red fluorescence by 2-TRLG, PMT3 (called red channel, the same shall apply hereinafter) was used in a wavelength detection range of 580-740 nm. […]
# [3] = mixed solution 100 μM 2-PBLG and 20 μM 2-TRLG
compound,measurement,setting,value
"O=C(NC1C(O)OC(CO)[C@H](O)C1O)c1cc2cc(F)c(O)c(F)c2oc1=O (stereo partly drawn) [2-PBLG, 2-Deoxy-2-((6,8-difluoro-7-hydroxycoumarin-3-yl)carboxamido)-L-glucose]",intracellular fluorescence intensity in Blue channel as compared with that before administration,"[1]; 100 μM with 20 μM 2-TRLG, 37° C., 5 minutes, image 4 minutes after initiation of washout",scarcely increased
same,persistence of intracellular blue fluorescence after washout,[1]; images 8 and 20 minutes after initiation of washout,recovered to the autofluorescence level
same,fluorescence of cells in the cell cluster 8 minutes after initiation of washout,[2]; [3],scattered around the outer edge of the center of a cell cluster
same,fluorescence of cells in the cell cluster 12 minutes after initiation of washout,[2]; [3],still multiple cells showing the strongly positive signal
same,fluorescence of cells in the cell cluster 2 minutes after initiation of washout,"[2]; mixed solution 100 μM 2-PBLG and 20 μM 2-TRLG, administered 5 minutes, MIN6 cluster day 13",extremely intense blue fluorescence is emitted from some cells
same,fluorescence of cells in the cancer cell cluster 12 minutes after completion of administration,"[2]; mixed solution 100 μM 2-PBLG, 100 μM 2-NBDLG, 20 μM 2-TRLG",emit blue fluorescence by 2-PBLG continuously
same,fluorescence of cells in the cancer cell cluster 8 minutes after completion of administration,"[2]; mixed solution 100 μM 2-PBLG, 100 μM 2-NBDLG, 20 μM 2-TRLG, MIN6 cluster day 13",intense blue fluorescence by 2-PBLG is maintained continuously
